{"source": "patent US20100284925A1", "about": "“Small Molecule Intervention for Obesity” (priority 2006, published 2010)", "key": {"NIH-3T3/L1 preadipocytes": {"tested_on": "NIH-3T3/L1 preadipocytes", "test": "Proliferation of NIH-3T3/L1 preadipocytes (daily cell counting)", "type": "cell-based", "procedure": "FIG. 6. Inhibition of NIH-3T3/L1 preadipocytes proliferation by prieurianin. Cells were treated with various concentrations (0.5, 1, and 2 μM) of prieurianin and growth was assessed by counting daily for 7 days. Results are means±S.E. of triplicate experiments."}, "[1]": {"test": "Diet-induced obese (DIO) C57BL/6J (B6) mice", "type": "in vivo", "procedure": "FIG. 16. Effects of prieurianin in diet-induced obese C57Bl/6J mice. B6 mice were put on 60% kcal high fat diet for approximately 15 weeks and then divided into groups of 10 and were then treated with either 1 (green) or 3 (brown) mg/kg of prieurianin daily intraperitoneally for three weeks compared to untreated (blue) or vehicle-treated (red) controls.\nFIG. 16A. Average weight changes of mice treated with prieurianin compared to controls through three weeks of treatment.\nFIG. 16B. Average food consumption in B6 mice treated with prieurianin as in FIG. 16A.\nFIG. 16C. Average weight changes in B6 mice treated with prieurianin on an “on-off” cyclical schedule for a total of 4 cycles described in the text. Results are the means S.E. of 10 animals per group, and the 3 mg/kg group with 20 mice.\nThe B6 mice were fed a 60% kcal high fat diet for approximately 15 weeks to gain weight and then treated with either 1 or 3 mg/kg of prieurianin intraperitoneally daily for 3 weeks. Mice continued to have access to the 60% kcal diet ad libitum during treatment.\nTo circumvent the problem of drug induced tolerance, a new protocol was developed where prieurianin treatment was stopped with the DIO mice, and the mice continued to be maintained on the high fat 60% kcal diet. Four weeks later, the mice were treated again with the following protocol: either 3 mg/kg of prieurianin for 5 days and followed by 5 days of drug holiday (no treatment), with the treatment repeated for 3 more cycles; or 5 mg/kg of prieurianin for 3 days and followed by 5 days of drug holiday, with the treatment repeated for 3 more cycles."}, "[2]": {"test": "Observation of overt toxicity in treated animals", "type": "in vivo", "details": "animals given the drug for the duration of the experiments"}, "[3]": {"test": "Body weight, food intake, serum parameters and adiposity in normal C57BL/6J mice", "type": "in vivo", "procedure": "FIG. 4. Effects of prieurianin on blood insulin, glucose and NEFA levels. Normal and ob/ob mice were treated with 5 mg/kg of prieurianin and serum samples were then collected for (FIG. 4A) insulin; (FIG. 4B) glucose; and (FIG. 4C) non-esterified fatty acid (NEFA) profiling. Results are means of three animals per group for each treatment. Blue column, normal C57BL/6J; and red column, leptin-deficient ob/ob mice.\nPrieurianin was administered intraperitoneally to 12-14 week-old normal C57BL/6J mice and the genetically leptin-deficient ob/ob mice (2 or 5 mg/kg) twice a week for two weeks. Controls received equivolume injections of drug vehicle. Body weight and food intake were measured every three days, and blood samples were collected at the end of the experiment.\nObesity contributes to hypertension, high serum cholesterol, low HDL cholesterol, and hyperglycemia, thus potentially leading to higher risk of cardiovascular disease. Abdominal obesity especially correlates with metabolic risk factors. The leptin-deficient ob/ob mice are hyperlipidemic, and hyperglycemic. To test whether prieurianin altered the metabolic or endocrinological parameters in addition to appetite, the serum lipid profile, insulin and glucose levels were measured.\nTo further examine the effects of prieurianin on the adiposity of the normal C57BL/6J and the ob/ob mice, we measured their visceral and subcutaneous body fat."}, "[4]": {"tested_on": "differentiated NIH-3T3/L1 adipocytes", "test": "Loss of lipid-positive differentiated adipocytes (oil red O, A510; Nile Red)", "type": "cell-based", "procedure": "FIG. 8. Prieurianin induced loss of differentiated adipocytes. NIH-3T3/L1 preadipocytes were induced into differentiation. Five days following differentiation, cells were treated with various concentrations (0.5, 1, and 2 μM) of prieurianin for an additional five days and followed by staining with oil red O. Micrographs were obtained from representatives of triplicate experiments. Isopropanol extracts of positively stained cells were quantified spectrophotometrically at 510 nm as shown in histogram on the right. Results are means±S.E. of triplicate experiments.\nFIG. 19. Effects of bufalin on preadipocyte differentiation, and dedifferentiation/delipidation in adipo-cytes. NIH-3T3/L1 cells were induced into differentiation and simultaneously treated with either 1 μM of bufalin or 2 μM of prieurianin. Differentiated cells were stained with Nile Red. Alternatively, preadipocytes were induced into differentiation and five days following differentiation, cells were treated with either 1 μM of bufalin or 2 μM of prieurianin for an additional five days and followed by staining with Nile Red. Stained cells were evaluated by fluorescence microscopy.\nTo assess whether prieurianin has any effect on the differentiated adipocytes, the preadipocytes were allowed to differentiate into adipocytes and then were further cultured for about five days before treating the adipocytes with prieurianin for an additional five to six days, followed by oil red O staining for the presence of lipid accumulating adipocytes."}, "[5]": {"test": "Body weight in leptin-receptor deficient db/db mice", "type": "in vivo", "procedure": "FIG. 15A. Groups of 10 db/db mice were given either 3 or 5 mg/kg of prieurianin i.p. daily for 30 days.\nThe effects of prieurianin were tested in three additional mouse models of obesity including the genetically hyperinsulinemic leptin-receptor deficient db/db, the Ceacam−/− glucose intolerant/diabetic, and the diet-induced obese mice. Prieurianin was administered intraperitoneally (i.p.) to 12-14 week-old db/db mice daily (3 or 5 mg/kg) for 30 days. The diet-induced obese Ceacam−/− diabetic mice were fed a high fat diet for 4 weeks for fattening, followed by prieurianin treatment (3 or 5 mg/kg) for 3 weeks. Vehicle treated controls received equivolume injections of Captisol (CyDex Inc., Lenexa, Kans.). Body weight and food intake were measured every three days, and blood samples were collected at the end of the experiment."}}}
{"compound": "C=C1[C@@H]([C@@]2(C)[C@@H](OC(C)=O)CC(=O)O[C@](C)(COC(C)=O)[C@@H]2C(=O)OC)[C@@H](OC=O)[C@H](OC(=O)[C@H](O)[C@H](C)CC)[C@@]2(C)[C@H](c3ccoc3)CC(=O)[C@]12O", "note": "[prieurianin]", "values": [{"measurement": "proliferation of preadipocytes", "setting": "NIH-3T3/L1 preadipocytes; 0.5, 1 and 2 μM, 7 days", "value": "inhibited the proliferation of the NIH-3T3/L1 preadipocytes in a dose-dependent manner"}, {"measurement": "inhibition at 2 µM", "setting": "NIH-3T3/L1 preadipocytes; Mus musculus, NIH3T3, 168 h, 2 μM, day 7", "value": 50, "unit": "%"}, {"measurement": "decrease in food consumption", "setting": "[1]; 1 or 3 mg/kg i.p. daily", "value": "70-80%"}, {"measurement": "weight loss of total body weight", "setting": "[1]; 1 or 3 mg/kg i.p. daily, within seven days of treatment", "value": "up to 10%"}, {"measurement": "body weight course after attained weight loss", "setting": "[1]; daily treatment for 3 weeks", "value": "gradual increase in body weight after week two"}, {"measurement": "decrease in body weight", "setting": "[1]; on-off cyclical schedule, 3 or 5 mg/kg, 4 cycles", "value": "up to 20%"}, {"measurement": "reduction of food consumption", "setting": "[1]; on-off cyclical treatment protocol", "value": "approximately 40%"}, {"measurement": "overt toxicity", "setting": "[2]", "value": "no overt toxicity was observed"}, {"measurement": "food intake", "setting": "[3]; normal C57BL/6J mice", "value": "reduced food intake"}, {"measurement": "glucose levels", "setting": "[3]; normal C57BL/6J mice", "value": "did not alter the insulin or the glucose levels significantly"}, {"measurement": "insulin levels", "setting": "[3]; normal C57BL/6J mice", "value": "did not alter the insulin or the glucose levels significantly"}, {"measurement": "serum PLTP activity", "setting": "[3]; normal C57BL/6J mice", "value": "increase in serum PLTP activity"}, {"measurement": "body weight", "setting": "[3]; normal C57BL/6J mice, 2 or 5 mg/kg i.p. twice a week, two weeks", "value": "modest body weight loss"}, {"measurement": "percent body fat", "setting": "[3]; normal C57BL/6J mice, any dose", "value": "not significantly altered"}, {"measurement": "NEFA levels", "setting": "[3]; normal mice", "value": "decrease in NEFA levels"}, {"measurement": "leptin levels", "setting": "[3]; normal mice", "value": "decrease in leptin levels"}, {"measurement": "HDL levels", "setting": "[3]; normal mice, serum", "value": "remained relatively unchanged"}, {"measurement": "total cholesterol level", "setting": "[3]; normal mice, serum", "value": "remained relatively unchanged"}, {"measurement": "triglyceride levels", "setting": "[3]; normal mice, serum", "value": "no significant changes"}, {"measurement": "number of lipid positive cells (oil red O stain A510 absorbance)", "setting": "[4]; 2 μM", "value": "almost absent and reduced to a level comparable to the undifferentiated control"}, {"measurement": "number of oil red O stained cells", "setting": "[4]; adipocytes treated five days after differentiation, 0.5, 1 and 2 μM", "value": "profound dose-dependent reduction in the number of oil red O stained cells"}, {"measurement": "weight loss", "setting": "[5]; 3 or 5 mg/kg i.p. daily", "value": "No weight loss was observed"}, {"measurement": "attenuation of weight gain", "setting": "[5]; over three weeks, vs untreated or vehicle-treated controls", "value": 50, "unit": "%"}]}
